# Measurements taken from ChEMBL document CHEMBL6178019, “Discovery of CYP1A1 Inhibitors for Host-Directed Therapy against Sepsis” (J Med Chem, 2025).
# Assays:
# Type in all cases: cell-based
# [1] = molecular target: T1, CYP1A1 (Mus musculus, UniProt P00184); assay: Inhibition of CYP1A1 in mouse RAW264.7 cells assessed as relative activity by measuring fold change at 5 uM incubated for 12 hrs by EROD assay relative to control; conditions: read-out: FC
# T1 sequence (P00184 whole entry): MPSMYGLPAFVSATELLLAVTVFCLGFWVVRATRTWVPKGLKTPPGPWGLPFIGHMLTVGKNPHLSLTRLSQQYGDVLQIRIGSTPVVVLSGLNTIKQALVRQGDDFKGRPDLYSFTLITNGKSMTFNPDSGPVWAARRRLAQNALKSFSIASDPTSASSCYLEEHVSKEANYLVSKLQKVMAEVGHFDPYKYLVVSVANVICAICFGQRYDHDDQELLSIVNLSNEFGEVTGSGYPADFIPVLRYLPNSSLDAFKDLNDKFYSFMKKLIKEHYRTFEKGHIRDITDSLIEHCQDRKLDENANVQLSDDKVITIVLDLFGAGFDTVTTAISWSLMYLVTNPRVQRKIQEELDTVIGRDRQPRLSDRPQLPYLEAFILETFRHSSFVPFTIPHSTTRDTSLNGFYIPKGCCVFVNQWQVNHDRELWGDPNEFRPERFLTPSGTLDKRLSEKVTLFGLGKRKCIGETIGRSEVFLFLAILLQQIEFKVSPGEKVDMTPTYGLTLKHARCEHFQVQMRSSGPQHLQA
# [2] = molecular target: T2, CYP1A1 (Homo sapiens, UniProt P04798); assay: Inhibition of CYP1A1 in human Caco-2 cells assessed as relative activity by measuring fold change at 500 nM incubated for 12 hrs by EROD assay relative to control; conditions: read-out: FC
# T2 sequence (P04798 whole entry): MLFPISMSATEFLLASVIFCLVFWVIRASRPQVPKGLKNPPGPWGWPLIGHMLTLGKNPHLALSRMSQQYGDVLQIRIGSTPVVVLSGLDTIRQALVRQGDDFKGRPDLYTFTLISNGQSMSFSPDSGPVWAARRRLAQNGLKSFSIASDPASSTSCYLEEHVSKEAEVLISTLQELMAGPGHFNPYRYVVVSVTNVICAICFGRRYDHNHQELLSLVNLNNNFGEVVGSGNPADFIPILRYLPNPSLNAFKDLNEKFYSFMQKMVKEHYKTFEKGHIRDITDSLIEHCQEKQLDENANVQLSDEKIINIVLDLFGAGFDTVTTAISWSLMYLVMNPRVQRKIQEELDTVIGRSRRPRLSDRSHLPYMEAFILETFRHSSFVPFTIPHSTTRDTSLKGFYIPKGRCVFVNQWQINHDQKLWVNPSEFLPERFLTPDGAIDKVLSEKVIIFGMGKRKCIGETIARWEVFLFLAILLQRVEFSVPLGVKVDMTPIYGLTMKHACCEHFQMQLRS
# [3] = molecular target: T1, CYP1A1; assay: Inhibition of CYP1A1 in mouse RAW264.7 cells assessed as relative activity by measuring fold change at 500 nM incubated for 12 hrs by EROD assay relative to control; conditions: read-out: FC
# [4] = molecular target: T3, Cytochrome P450 1A1 (Homo sapiens, UniProt P04798); assay: Inhibition of CYP1A1 in human Caco-2 cells assessed as relative activity by measuring fold change at 5.0 uM incubated for 12 hrs by EROD assay relative to control; conditions: caco-2, 12 h
# T3 sequence (P04798 whole entry): T2 sequence (P04798 whole entry)
SMILES,"fold induction at 12 h, 5 µM [1]","fold induction at 12 h, 0.5 µM [2]","fold induction at 12 h, 0.5 µM [3]",fold change (FC) [4]
Cn1c(=O)n(C)c2cc(C(=O)/C=C/c3cc(F)c(F)cc3F)ccc21,0.79,0.35,1.11,0.1
Cn1c(=O)n(C)c2cc(C(=O)/C=C/c3ccc(O[Si](C)(C)C(C)(C)C)cc3)ccc21,0.89,0.69,1.11,0.43
C#Cc1ccc(/C=C/C(=O)c2ccc(N(C)C(C)=O)cc2)cc1,1.04,0.81,1.16,0.78
Cn1c(=O)n(C)c2cc(C(=O)/C=C/c3ccccn3)ccc21,0.16,0.83,0.9,0.88
Cn1c(=O)n(C)c2cc(C(=O)/C=C/c3ccc(C(C)(C)C)cc3)ccc21,0.51,0.98,0.64,0.97
Cn1c(=O)n(C)c2cc(C(=O)/C=C/c3cccnc3Br)ccc21,0.22,0.63,0.94,0.22
Cn1c(=O)n(C)c2cc(C(=O)/C=C/C=C/c3ccc(F)cc3)ccc21,0.57,0.62,0.82,0.17
Cn1c(=O)n(C)c2cc(C(=O)/C=C/c3ccc(B(O)O)cc3F)ccc21,0.66,0.45,1.02,0.14
Cn1c(=O)n(C)c2cc(C(=O)/C=C/c3cnc4ccccc4c3)ccc21,0.29,0.62,1.03,0.15
O=C(/C=C/c1ccc(F)cc1)c1ccccc1 [4-FLUORO CHALCONE],0.91,0.83,1.1,0.86
Cn1c(=O)n(C)c2cc(C(=O)/C=C/c3cn(Cc4ccccc4)c4ccccc34)ccc21,0.78,0.52,0.84,0.33
Cn1cccc1/C=C/C(=O)c1ccc2c(c1)n(C)c(=O)n2C,1.07,0.45,1.47,0.09
Cn1c(=O)n(C)c2cc(S(=O)(=O)NCc3ccccc3)ccc21,0.9,1.1,1.02,0.94
Cn1c(=O)n(C)c2cc(C(=O)/C=C/c3ccccc3P(c3ccccc3)c3ccccc3)ccc21,0.31,0.72,0.86,0.16
CCCCOc1ccc(/C=C/C(=O)c2ccc3c(c2)n(C)c(=O)n3C)cc1,0.77,0.91,0.95,0.23
Cn1c(=O)n(C)c2cc(C(=O)/C=C/C#C[Si](C)(C)C)ccc21,0.15,0.66,0.55,0.11
Cn1c(=O)n(C)c2cc(C(=O)/C=C/C#Cc3ccccc3)ccc21,0.49,0.85,0.79,0.39
Cn1c(=O)n(C)c2cc(C(=O)/C=C/c3ccc([N+](=O)[O-])o3)ccc21,0.24,0.71,0.95,0.28
Cn1c(=O)n(C)c2cc(C(=O)/C=C/c3ncccn3)ccc21,0.72,1.05,0.73,0.88
Cn1c(=O)n(C)c2cc(C(=O)/C=C/C=C/c3ccccc3)ccc21,0.44,0.82,0.62,0.35
COc1ccc2c(c1)c(/C=C/C(=O)c1ccc3c(c1)n(C)c(=O)n3C)cn2Cc1ccccc1,0.81,1.14,1.15,0.81
Cn1c(=O)n(C)c2cc(C(=O)/C=C/c3ccc4ccccc4n3)ccc21,0.17,0.38,0.61,0.13

# Continued, values first:
"fold induction at 12 h, 5 µM [1]","fold induction at 12 h, 0.5 µM [2]","fold induction at 12 h, 0.5 µM [3]",fold change (FC) [4],SMILES
0.19,0.47,0.29,0.08,Cn1c(=O)n(C)c2cc(C(=O)/C=C/c3ccc(F)cc3)ccc21
0.53,3.53,2.57,0.93,Cn1c(=O)n(C)c2cc(C(=O)/C=C/c3cccnc3)ccc21
0.14,0.18,1.07,0.01,C#Cc1cccc(/C=C/C(=O)c2ccc3c(c2)n(C)c(=O)n3C)c1
0.6,0.83,0.82,0.51,Cn1c(=O)n(C)c2cc(C(=O)/C=C/c3ccc(C#N)cc3)ccc21
0.77,1.18,0.8,0.47,Cn1c(=O)n(C)c2cc(C(=O)/C=C/c3ccc4ccccc4c3)ccc21
0.19,0.22,0.63,0.07,C#Cc1ccc(/C=C/C(=O)c2ccc3c(c2)n(C)c(=O)n3C)cc1
0.16,0.58,0.62,0.17,Cn1c(=O)n(C)c2cc(C(=O)/C=C/c3cccc(OC(F)(F)F)c3)ccc21
0.2,0.66,0.77,0.08,Cc1ccc(/C=C/C(=O)c2ccc3c(c2)n(C)c(=O)n3C)cn1
1.22,2.34,1.08,3.08,Cn1c(=O)n(C)c2cc(C(=O)/C=C/c3ccncc3)ccc21
0.2,0.81,0.57,0.78,CSc1ccc(/C=C/C(=O)c2ccc3c(c2)n(C)c(=O)n3C)cc1
0.67,0.57,0.93,0.18,Cn1c(=O)n(C)c2cc(C(=O)/C=C/c3ccoc3)ccc21
0.22,0.71,0.95,0.28,Cn1c(=O)n(C)c2cc(C(=O)/C=C/c3ccccc3)ccc21
0.8,0.32,1.42,0.07,Cn1c(=O)n(C)c2cc(C(=O)/C=C/c3cccc(F)c3)ccc21
